Assay [1] relates to KB. As to the kind of experiment: Cytotoxicity against human KB cells after 48 hrs by MTT assay. Format: functional, cell-based. For orientation: Tetrazolium assays rely on reduction of a dye to a coloured formazan, in cell work by metabolically active cells.
Assay [2] has as its system HL-60. As to the kind of experiment: Cytotoxicity against human HL60 cells after 48 hrs by MTT assay. The format is functional, cell-based. The following applies: HL-60, 48 h.
The test system of assay [3] is Bel-7402. Kind of assay: Cytotoxicity against human Bel7402 cells after 48 hrs by MTT assay. The format is functional, cell-based. Particulars: Bel-7402, 48 h.
In assay [4] the test system is BGC-823. Kind of assay: Cytotoxicity against human BGC823 cells after 48 hrs by MTT assay. The format is functional, cell-based. The following applies: BGC-823, 48 h.
The test system of assay [5] is DNA. As to the kind of experiment: Binding affinity to calf thymus DNA assessed as intercalation after 2 hrs by UV-Vis absorption titration analysis. The format is nucleic-acid assay. The following applies: Bos taurus.
Assay [6] deals with DNA. Kind of assay: Binding affinity to calf thymus DNA assessed as conformational changes in DNA morphology at […] after 2 hrs by circular dichroism analysis. The following applies: Bos taurus. The format is nucleic-acid assay. For orientation: Circular dichroism is widely used to follow secondary structure.
Assay [7] has as its system DNA. As to the kind of experiment: Binding affinity to calf thymus DNA assessed as intercalation after 2 hrs by Stern-Volmer plot relative to control. The format is nucleic-acid assay. The following applies: Bos taurus.
Assay [8] concerns DNA. Kind of assay: Binding affinity to calf thymus DNA assessed as hypochromicity at 20 uM after 2 hrs by UV-Vis absorption titration analysis. Format: nucleic-acid assay. Particulars: Bos taurus.
The test system of assay [9] is DNA. As to the kind of experiment: Binding affinity to calf thymus DNA assessed as change in melting temperature at 100 uM by spectroscopic analysis. The format is nucleic-acid assay. Particulars: Bos taurus.

Each structure is given as a SMILES string. Activity calls are given as the source filed them. The calls are words filed in the database; no cut-off is given here.

Broadly, the IC50 is the concentration at which inhibition is half-maximal. `COc1ccc2cc3[n+](cc2c1OC)CCc1cc2c(cc1-3)OCO2` [BERBERINE CHLORIDE]: the half-maximal inhibitory concentration (IC50) in assay [1] came out at 6.03 µM; in assay [2] it was 5.83 µM; in assay [3], 16.3 µM; in assay [4] it was 7.04 µM.

In general, ΔTm refers to the change in melting temperature against a reference sample. For `COc1ccc2cc3[n+](cc2c1OCCOCCN1CCOCC1)CCc1cc2c(cc1-3)OCO2`, in [5], the K was 6.32 ×10⁶ /M. For the same compound, the IC50 in assay [1] came out at 9.93 µM; in assay [2] it was 16.4 µM; in assay [3] it was 9.44 µM; in assay [4] it was 11.9 µM. The outcome in [6] was Active. Also, the KSV in assay [7] was 1.82 ×10⁵ /M. For the same compound, in assay [8], the Activity came out at 21%. Also, in assay [9], the ΔTm was determined as 1.7 °C.

For `COc1ccc2cc3[n+](cc2c1OCCOCCN1CCCCC1)CCc1cc2c(cc1-3)OCO2`, the K in assay [5] worked out at 1.49 ×10⁶ /M. In addition, the IC50 in assay [1] worked out at 19.7 µM; in assay [2], 46.8 µM; in [3], 17.9 µM; in assay [4], 22.2 µM. In addition, the result in [6] was Active. Moreover, the KSV in [7] worked out at 8.01 ×10⁴ /M. For the same compound, the Activity in assay [8] was 19%. Further, the shift in melting temperature (ΔTm) in assay [9] amounted to 1.5 °C.

For the compound `COc1ccc2cc3[n+](cc2c1O)CCc1cc2c(cc1-3)OCO2` [BERBERRUBINE CHLORIDE], the IC50 in assay [1] is 6.92 µM; in assay [2], 11.4 µM; in assay [3] it was 34.3 µM; in assay [4], 7.66 µM.

Consider `COc1ccc2cc3[n+](cc2c1OCCOCCOCCN1CCCCC1)CCc1cc2c(cc1-3)OCO2`, for which the K in assay [5] was determined as 1.86 ×10⁵ /M. Besides, the IC50 is 33.9 µM in assay [1], 45.8 µM in assay [2], 33.4 µM in [3] and 20.6 µM in assay [4]. Moreover, the outcome in [6] was Active. Further, the KSV in assay [7] is 1.01 ×10⁵ /M. Also, the Activity in assay [8] was 21%. In [9], the thermal shift (ΔTm) was 1.3 °C.

Take `COc1ccc2cc3[n+](cc2c1OCCOCCOCCN1CCOCC1)CCc1cc2c(cc1-3)OCO2`: in assay [5], the K was determined as 3.45 ×10⁵ /M. The concentration for half-maximal inhibition (IC50) in assay [1] is 10 µM; in assay [2] it was 14.8 µM; in assay [3], 9.66 µM; in assay [4] it was 10.8 µM. Further, the result in assay [6] was Active. Also, in [7], the KSV came out at 1.79 ×10⁵ /M. Further, the Activity in [8] stood at 25%. The thermal shift (ΔTm) in assay [9] turned out to be 1.2 °C.

As for `COc1ccc2cc3[n+](cc2c1OCCN1CCCCC1)CCc1cc2c(cc1-3)OCO2`, the K in [5] is 1.27 ×10⁸ /M. Further, the IC50 in assay [1] is 17.1 µM; in [2], 6.51 µM; in [3], 27.5 µM; in assay [4] it was 10.2 µM. Moreover, the result in assay [6] was Active. The KSV in assay [7] was 7.09 ×10⁴ /M. Moreover, the Activity in [8] was 21%. The thermal shift (ΔTm) in assay [9] was determined as 2.2 °C.

With `COc1ccc2cc3[n+](cc2c1OCCN1CCOCC1)CCc1cc2c(cc1-3)OCO2`, the K in assay [5] was 3.55 ×10⁸ /M. Moreover, the concentration for half-maximal inhibition (IC50) came to 5.46 µM in [1], 2.71 µM in assay [2], 11.6 µM in assay [3] and 2.82 µM in [4]. For the same compound, the result in [6] was Active. Moreover, the KSV in assay [7] turned out to be 1.27 ×10⁵ /M. Also, the Activity in [8] came to 17%. The ΔTm in assay [9] was determined as 1.4 °C.

These data come from ChEMBL document CHEMBL2434919, “Synthesis, cytotoxicity, and DNA-binding property of berberine derivatives” (Med Chem Res, 2013).
